{
  "source": "ChEMBL document CHEMBL1201862",
  "about": "“PubChem BioAssay data set” (2004)",
  "experiment_in_all_cases": "NCI-60 cell line screen, 48 h",
  "key": {"KM12": {"tested_on": "KM12"}, "NCI/ADR-RES": {"tested_on": "NCI/ADR-RES"}, "PC-3": {"tested_on": "PC-3"}, "MCF7": {"tested_on": "MCF7"}, "IGROV-1": {"tested_on": "IGROV-1"}, "HCC 2998": {"tested_on": "HCC 2998"}, "OVCAR-8": {"tested_on": "OVCAR-8"}, "HL-60": {"tested_on": "HL-60"}, "RPMI-8226": {"tested_on": "RPMI-8226"}, "HCT-116": {"tested_on": "HCT-116"}, "ACHN": {"tested_on": "ACHN"}, "OVCAR-4": {"tested_on": "OVCAR-4"}, "BT-549": {"tested_on": "BT-549"}, "SK-MEL-28": {"tested_on": "SK-MEL-28"}, "T47D": {"tested_on": "T47D"}, "EKVX": {"tested_on": "EKVX"}, "HOP-92": {"tested_on": "HOP-92"}, "UO-31": {"tested_on": "UO-31"}, "SR": {"tested_on": "SR"}, "CAKI-1": {"tested_on": "CAKI-1"}, "M14": {"tested_on": "M14"}, "MOLT-4": {"tested_on": "MOLT-4"}, "HCT-15": {"tested_on": "HCT-15"}, "LOX IMVI": {"tested_on": "LOX IMVI"}, "SN12C": {"tested_on": "SN12C"}, "Hs-578T": {"tested_on": "Hs-578T"}, "SW-620": {"tested_on": "SW-620"}, "SK-MEL-5": {"tested_on": "SK-MEL-5"}, "HT-29": {"tested_on": "HT-29"}, "786-0": {"tested_on": "786-0"}, "U-251": {"tested_on": "U-251"}, "MDA-MB-435": {"tested_on": "MDA-MB-435"}, "A498": {"tested_on": "A498"}, "MDA-MB-231": {"tested_on": "MDA-MB-231"}, "COLO 205": {"tested_on": "COLO 205"}, "OVCAR-5": {"tested_on": "OVCAR-5"}, "MDA-N": {"tested_on": "MDA-N"}, "Malme-3M": {"tested_on": "Malme-3M"}, "NCI-H460": {"tested_on": "NCI-H460"}, "TK-10": {"tested_on": "TK-10"}, "OVCAR-3": {"tested_on": "OVCAR-3"}, "SF-295": {"tested_on": "SF-295"}, "UACC-257": {"tested_on": "UACC-257"}, "SF-268": {"tested_on": "SF-268"}, "CCRF-CEM": {"tested_on": "CCRF-CEM"}, "UACC-62": {"tested_on": "UACC-62"}, "NCI-H522": {"tested_on": "NCI-H522"}, "SF-539": {"tested_on": "SF-539"}, "DU-145": {"tested_on": "DU-145"}, "SNB-75": {"tested_on": "SNB-75"}, "A549": {"tested_on": "A549"}, "NCI-H23": {"tested_on": "NCI-H23"}, "SK-MEL-2": {"tested_on": "SK-MEL-2"}, "HOP-62": {"tested_on": "HOP-62"}, "SNB-19": {"tested_on": "SNB-19"}},
  "note": "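Values below derive from 48-hour exposures of cells grown in 96-well plates, with endpoints linearly interpolated between the two concentrations bracketing the appropriate inhibition level. GI50 marks 50% less growth.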 The source made the active and inactive calls. Cut-off read from the data, not from the text of the source: active = GI50 up to about 1.1 µM and inactive = higher.",
  "data": [
    {"smiles": "CCOC(=O)C1C(c2ccc(OC)cc2)c2c(n[nH]c2O)CC1(O)OCC", "note": "(stereo not given)", "values": [
      {"measurement": "GI50", "setting": "KM12", "result": "> 100 µM (inactive)"},
      {"measurement": "GI50", "setting": "NCI/ADR-RES", "result": "> 100 µM (inactive)"},
      {"measurement": "GI50", "setting": "PC-3", "result": "> 100 µM (inactive)"},
      {"measurement": "GI50", "setting": "MCF7", "result": "> 100 µM (inactive)"},
      {"measurement": "GI50", "setting": "IGROV-1", "result": "> 100 µM (inactive)"},
      {"measurement": "GI50", "setting": "HCC 2998", "result": "> 100 µM (inactive)"},
      {"measurement": "GI50", "setting": "OVCAR-8", "result": "> 100 µM (inactive)"},
      {"measurement": "GI50", "setting": "HL-60", "result": "> 100 µM (inactive)"},
      {"measurement": "GI50", "setting": "RPMI-8226", "result": "> 100 µM (inactive)"},
      {"measurement": "GI50", "setting": "HCT-116", "result": "> 100 µM (inactive)"},
      {"measurement": "GI50", "setting": "ACHN", "result": "> 100 µM (inactive)"},
      {"measurement": "GI50", "setting": "OVCAR-4", "result": "> 100 µM (inactive)"},
      {"measurement": "GI50", "setting": "BT-549", "result": "> 100 µM (inactive)"},
      {"measurement": "GI50", "setting": "SK-MEL-28", "result": "> 100 µM (inactive)"},
      {"measurement": "GI50", "setting": "T47D", "result": "> 100 µM (inactive)"},
      {"measurement": "GI50", "setting": "EKVX", "result": "> 100 µM (inactive)"},
      {"measurement": "GI50", "setting": "HOP-92", "result": "> 100 µM (inactive)"},
      {"measurement": "GI50", "setting": "UO-31", "result": "> 100 µM (inactive)"},
      {"measurement": "GI50", "setting": "SR", "result": "> 100 µM (inactive)"},
      {"measurement": "GI50", "setting": "CAKI-1", "result": "> 100 µM (inactive)"},
      {"measurement": "GI50", "setting": "M14", "result": "> 100 µM (inactive)"},
      {"measurement": "GI50", "setting": "MOLT-4", "result": "> 100 µM (inactive)"},
      {"measurement": "GI50", "setting": "HCT-15", "result": "> 100", "unit": "µM"},
      {"measurement": "GI50", "setting": "LOX IMVI", "result": "> 100 µM (inactive)"},
      {"measurement": "GI50", "setting": "SN12C", "result": "> 100 µM (inactive)"},
      {"measurement": "GI50", "setting": "Hs-578T", "result": "> 100 µM (inactive)"},
      {"measurement": "GI50", "setting": "SW-620", "result": "> 100 µM (inactive)"},
      {"measurement": "GI50", "setting": "SK-MEL-5", "result": "> 100 µM (inactive)"},
      {"measurement": "GI50", "setting": "HT-29", "result": "> 100 µM (inactive)"},
      {"measurement": "GI50", "setting": "786-0", "result": "> 100 µM (inactive)"},
      {"measurement": "GI50", "setting": "U-251", "result": "> 100 µM (inactive)"},
      {"measurement": "GI50", "setting": "MDA-MB-435", "result": "> 100 µM (inactive)"},
      {"measurement": "GI50", "setting": "A498", "result": "> 100 µM (inactive)"},
      {"measurement": "GI50", "setting": "MDA-MB-231", "result": "> 100 µM (inactive)"},
      {"measurement": "GI50", "setting": "COLO 205", "result": "> 100 µM (inactive)"},
      {"measurement": "GI50", "setting": "OVCAR-5", "result": "> 100 µM (inactive)"},
      {"measurement": "GI50", "setting": "MDA-N", "result": "> 100 µM (inactive)"},
      {"measurement": "GI50", "setting": "Malme-3M", "result": "> 100 µM (inactive)"},
      {"measurement": "GI50", "setting": "NCI-H460", "result": "> 100 µM (inactive)"},
      {"measurement": "GI50", "setting": "TK-10", "result": "> 100 µM (inactive)"},
      {"measurement": "GI50", "setting": "OVCAR-3", "result": "> 100 µM (inactive)"},
      {"measurement": "GI50", "setting": "SF-295", "result": "44.8 µM (inactive)"},
      {"measurement": "GI50", "setting": "UACC-257", "result": "> 100 µM (inactive)"},
      {"measurement": "GI50", "setting": "SF-268", "result": "> 100 µM (inactive)"},
      {"measurement": "GI50", "setting": "CCRF-CEM", "result": "> 100 µM (inactive)"},
      {"measurement": "GI50", "setting": "UACC-62", "result": "> 100 µM (inactive)"},
      {"measurement": "GI50", "setting": "NCI-H522", "result": "> 100 µM (inactive)"},
      {"measurement": "GI50", "setting": "SF-539", "result": "> 100 µM (inactive)"},
      {"measurement": "GI50", "setting": "DU-145", "result": "> 100 µM (inactive)"},
      {"measurement": "GI50", "setting": "SNB-75", "result": "> 100 µM (inactive)"},
      {"measurement": "GI50", "setting": "A549", "result": "> 100 µM (inactive)"},
      {"measurement": "GI50", "setting": "NCI-H23", "result": "> 100 µM (inactive)"},
      {"measurement": "GI50", "setting": "SK-MEL-2", "result": "> 100 µM (inactive)"},
      {"measurement": "GI50", "setting": "HOP-62", "result": "> 100 µM (inactive)"},
      {"measurement": "GI50", "setting": "SNB-19", "result": "> 100 µM (inactive)"}
    ]}
  ]
}
